Assay [1] has as its target T1, PARP1 (Homo sapiens, UniProt P09874). Nature of the assay: cell-based assay (Table 1); proliferation assay (PARP inhibitors) in DLD-1 wt and DLD-1 BRCA2, CTG detection. On the set-up: endogenous in cells; host or cells: DLD-1 wt and DLD-1 BRCA2 (-/-). To be noted: Table 1, results of the cell-based assay; cell line (DLD-1 wt or DLD-1 BRCA2) not given. The procedure: Proliferation Assay (PARP Inhibitors) in DLD-1 wt and DLD-1 BRCA2
DLD-1-wt and DLD-1 mutant cells are cultured in RPMI 1640+10% FBS+1% PS. The cells are harvested into culture media for 2-3 days. The cells are diluted into culture media (density 2˜3×10^6) and 40 uL of cell suspension (50 cells/well for DLD-1 wt and 50 cells/well for DLD-1 BRCA (−/−). The plates are covered and spun at rt at 1000 rpm, for 1 minute and then transferred. The plates are placed into 37° C. 5% CO2 incubator overnight. Test compounds are dissolved at 10 mM DMSO stock solution and then 40 uL of stock solution is transferred to a 384 PP-plate. A 10-point dilution is carried out by transferring 10 uL compound into 30 μL DMSO by using TECAN (EVO200) liquid handler. The plates are spun at rt at 1000 rpm for 1 minute and then shaken on a plate shaker for 2 minutes. Forty nL of diluted compound is transferred into the cell plate by using a liquid handler. After 7 days of incubation, a CTG detection assay is performed. The CTG detection assay is carried out by removing the plates from the incubators and then equilibrated at rt for 15 minutes. The CellTiter Glo reagents are thawed and equilibrated at rt. CellTiter-Glo reagent (30 μL) is added into each well, and the plates are placed at rt for 30 minutes followed by reading on EnVision. The inhibition activity is calculated using the formula: % Inhibition=100×(LumHC−LumSample)/(LumHC−LumLC).
In Table 1, ‘A’ indicates an IC50 of <0.1 μM, ‘B’ indicates an IC50 of ≥0.1 μM and <1.0 μM, and ‘C’ indicates an IC50 of ≥1.0 μM. As shown by the results in Table 1, compounds of Formula (I), including pharmaceutically acceptable salts thereof, are effective PARP1 inhibitors.

Assay [2] has as its target T1, PARP1. The assay is described as follows: biochemical assay (Table 2); FP binding assay (PARP1, PARP2) with PARPi-FL. As to conditions: Table 2, results of the biochemical assay. On the procedure:
FP Binding Assay (PARP1, PARP2)
The PARP1 and PARP 2 protein and the PARPi-FL were purchased from BPS Bioscience. The assay buffer was 50 mM Tris pH 8.0, 0.001% Triton X-100, 10 mM MgCl2, 150 mM NaCl. The compounds were diluted into top point concentration in 384PP-plate and transferred serially into an Optiplate-384F plate. Compound (20 nL) or DMSO was added to assay plate and then 10 uL of 40 nM PARP1 or PARP2 (diluted using assay buffer) was added. The assay plate was centrifuged at 1000 rpm for 1 min and then incubated for 30 min at rt. 6 nM PARPi-FL (diluted using assay buffer) (10 uL) was added to the plate (final concentration of PARP1 and PARP2 was 20 nM, and PARPi-FL was 3 nM). After centrifuging at 1000 rpm for 1 min, the assay plate was incubated at rt 4 h. The plates were read using Envision with Excitation filter. The data analysis was done by calculating the inhibition rate using mP value using the following equation. Inhibition (%)=(1−mpC−mpL)/mpH−mpL×100%.
As shown by the results in Table 2, compounds of Formula (I), including pharmaceutically acceptable salts thereof, are effective PARP1 inhibitors.

Where only a bound is given, the exact number is not on record here.

By IC50 is commonly meant the concentration that inhibits the measured activity by half. High values mean lower potency, low ones higher potency.

T1 sequence (P09874 whole entry): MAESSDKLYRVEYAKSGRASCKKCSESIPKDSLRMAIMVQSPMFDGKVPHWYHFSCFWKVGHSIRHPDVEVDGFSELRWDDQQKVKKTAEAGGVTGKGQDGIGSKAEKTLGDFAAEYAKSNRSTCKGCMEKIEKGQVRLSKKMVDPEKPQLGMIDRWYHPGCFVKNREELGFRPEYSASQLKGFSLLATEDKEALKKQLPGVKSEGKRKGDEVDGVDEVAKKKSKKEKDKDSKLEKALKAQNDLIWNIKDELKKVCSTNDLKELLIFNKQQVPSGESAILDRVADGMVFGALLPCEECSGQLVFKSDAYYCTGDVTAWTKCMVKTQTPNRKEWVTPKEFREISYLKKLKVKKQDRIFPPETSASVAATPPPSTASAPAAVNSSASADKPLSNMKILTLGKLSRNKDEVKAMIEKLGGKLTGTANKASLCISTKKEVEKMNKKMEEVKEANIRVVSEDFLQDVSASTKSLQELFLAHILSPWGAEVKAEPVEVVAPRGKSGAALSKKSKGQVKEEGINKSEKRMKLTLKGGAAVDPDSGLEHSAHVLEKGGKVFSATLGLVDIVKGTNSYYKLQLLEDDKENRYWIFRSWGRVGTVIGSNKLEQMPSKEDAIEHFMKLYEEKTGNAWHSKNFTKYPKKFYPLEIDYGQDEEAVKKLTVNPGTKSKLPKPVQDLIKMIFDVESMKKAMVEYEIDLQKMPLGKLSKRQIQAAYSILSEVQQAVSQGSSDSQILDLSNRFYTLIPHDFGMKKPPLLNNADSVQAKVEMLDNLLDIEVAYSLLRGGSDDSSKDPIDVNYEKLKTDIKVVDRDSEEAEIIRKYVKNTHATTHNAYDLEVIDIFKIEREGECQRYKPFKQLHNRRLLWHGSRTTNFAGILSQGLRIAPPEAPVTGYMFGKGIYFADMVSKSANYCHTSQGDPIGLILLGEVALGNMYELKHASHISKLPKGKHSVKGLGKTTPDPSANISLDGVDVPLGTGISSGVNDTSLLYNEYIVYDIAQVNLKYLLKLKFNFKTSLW

At PARP1 [1], `CCC1Oc2ccc(CN3CCN(c4ccc(C(=O)NC)nc4F)CC3)c(F)c2NC1=O` (single isomer, unassigned) [Compound 3aa] registered a 50% inhibitory concentration (IC50) of less than 100 nM.
Take `CNC(=O)c1ccc(N2CCN(Cc3ccc4c(c3F)NC(=O)C3(CC3)O4)CC2)c(C)n1` [Compound A8]: the concentration for half-maximal inhibition (IC50) on PARP1 [2] is less than 5 nM; at PARP1 [1], less than 100 nM.
Compound `CCC1Oc2ccc(CN3CCN(c4ccc(C(=O)NC)nc4F)CC3)c(F)c2NC1=O` (single isomer, unassigned) [Compound 3ab] showed an IC50 on PARP1 [1] of less than 100 nM.

Source of the values: patent US12054479B1, “Multicyclic compounds” (SLAP Pharmaceuticals LLC, priority 2022, dated 2024).
